Experimental findings from PMC10997755, “Discovery of a small-molecule inhibitor that traps Polθ on DNA and synergizes with PARP inhibitors” (Nature Communications, 2024) are described below.

Structures are written as SMILES. Converted amounts (≈) assume the structure as drawn. “And” between values parts separate entries of the source, which are not always exact repeats. Equal values may be shown once.

The nature of one data set: Solubility (2% DMSO/PBS). Type of data set: physicochemical. The note with it: aqueous buffer, kinetic from dmso stock.
For a further data set, the target named is T1, Polθ-pol on DNA/RNA (Homo sapiens, UniProt O75417).
T1 construct: purified recombinant human Polθ-pol (comprising amino acid residues 1792–2590); made in house
T1 sequence (O75417 1792-2590): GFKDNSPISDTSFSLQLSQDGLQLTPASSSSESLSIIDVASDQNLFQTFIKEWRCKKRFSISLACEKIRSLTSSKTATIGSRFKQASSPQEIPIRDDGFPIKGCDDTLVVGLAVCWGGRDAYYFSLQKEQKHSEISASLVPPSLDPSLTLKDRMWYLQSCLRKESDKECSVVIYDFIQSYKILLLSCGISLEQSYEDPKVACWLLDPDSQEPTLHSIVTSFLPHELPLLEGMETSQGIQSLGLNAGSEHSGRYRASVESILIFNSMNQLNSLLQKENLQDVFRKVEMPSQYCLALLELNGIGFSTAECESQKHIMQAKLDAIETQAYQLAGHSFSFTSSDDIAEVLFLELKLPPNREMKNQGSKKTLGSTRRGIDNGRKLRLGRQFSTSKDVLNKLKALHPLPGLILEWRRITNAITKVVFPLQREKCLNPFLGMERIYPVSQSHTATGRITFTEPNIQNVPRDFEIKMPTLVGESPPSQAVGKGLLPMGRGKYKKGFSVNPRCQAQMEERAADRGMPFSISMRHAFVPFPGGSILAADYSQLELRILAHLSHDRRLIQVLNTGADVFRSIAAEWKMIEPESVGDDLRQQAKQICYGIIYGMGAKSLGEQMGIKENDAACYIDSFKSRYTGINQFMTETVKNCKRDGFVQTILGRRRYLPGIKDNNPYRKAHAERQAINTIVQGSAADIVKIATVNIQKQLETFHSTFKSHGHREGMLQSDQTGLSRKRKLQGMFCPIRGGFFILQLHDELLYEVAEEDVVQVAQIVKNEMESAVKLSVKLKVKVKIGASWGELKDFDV
The data set is described as follows: Relative rate of ddCMP addition on DNA/RNA. In kind it is biochemical. The note with it: for Average % Extension (Single nt) / % Extension (Single nt) / % Extension of Control: RNA template; for Average % Extension (Single nt) / % Extension (Single nt): 2uM RTX-161; for Average % Extension (Single nt): average of 3 trials; for % Extension (Single nt) / % Extension of Control: single trials 1-3; for % Extension of Control: 2uM RTX-161 relative to DMSO. How it is done:
Relative rate of Polθ-pol dAMP addition. The relative rates of dAMP incorporation by Polq-pol in the presence of DMSO or MC160385 with various concentrations of dATP were measured using the following primer extension assay in vitro. 2 nM or Polθ-pol was incubated with 5’ ^32P-γ-ATP labeled 100 nM primer-template (RP469D/RP486) in 1X buffer (25 mM TrisHCl pH 7.8, 0.01% NP40, 10% glycerol, 1 mM DTT, 10 mM MgCl2, 0.1 mg/ml BSA) at room temp. 2.5% DMSO, 7.5 nM or 12 nM of MC160385 was added. Reactions were than initiated by the addition of 20, 50, 100, 200, or 300 μM dATP at room temp. Aliquots of the reactions were removed and terminated by the addition of 50 mM EDTA at 3, 3.5, 4 and 5 min after the reaction was initiated. Radio-labeled DNA was then resolved via denaturing 20% PAGE and visualized by Typhoon PhosphorImager (GE Amersham). Rates of dAMP incorporation were calculated from % extension of the prime-template which was determined using ImageJ software. Relative rate of ddCMP addition on DNA/DNA and DNA/RNA. 25 nM nucleic acid DNA/DNA or DNA/RNA primer-template (RP559/RP702 or RP559/RP702R) was mixed with 1X reaction buffer (20 mM TrisHCl pH 7.5, 0.01% NP-40, 0.5 mM DTT, 10% glycerol, 0.1 mg/ml BSA, 10 mM MgCl2) in the presence of 250 μM ddCTP at room temp. Next, 2 μM RTx-161 or 2.5% DMSO was added. Reactions were initiated by the addition of 10 nM Polθ-pol. Reaction aliquots were removed and terminated by the addition of 50 mM EDTA at the indicated time points. Radio-labeled DNA was then resolved via denaturing 20% PAGE and visualized by Typhoon PhosphorImager. Percent primer extension by single ddCMP addition at each time point was calculated from % extension of the prime-template which was determined using ImageJ software.

Broadly, the solubility is the concentration that dissolves in the medium under given conditions. The low end stands for little dissolved substance, the high end for much dissolved substance. The compound `CN(C(=O)Oc1ccc(C(F)(F)F)cc1C(F)(F)F)c1ccc(F)cc1` [MC160385] came in with a solubility in the data set “Solubility (2% DMSO/PBS)” of 56 µM (≈ 21.3 µg/mL).

For the compound `CN(C(=O)Oc1c(N2CCN(CCO)C2=O)cc(C(F)(F)F)cc1C(F)(F)F)c1ccc(F)cc1` [RTx-161], the “inhibition of single nucleotide incorporation on DNA/RNA” value against Polθ-pol on DNA/RNA (2 μM RTx-161, open conformation) is on record as “failed to significantly inhibit”. In addition, the “Average % Extension (Single nt)” value on Polθ-pol on DNA/RNA (Time 0) is recorded as 0.00%; on Polθ-pol on DNA/RNA (Time 5), 4.59%; on Polθ-pol on DNA/RNA (Time 10), 7.95%; on Polθ-pol on DNA/RNA (Time 20) it was 16.13%; on Polθ-pol on DNA/RNA (Time 40) it was 27.98%. In addition, the “% Extension (Single nt)” value at Polθ-pol on DNA/RNA (Time 0) is 0.00%; on Polθ-pol on DNA/RNA (Time 5), 2.50% and 5.50% and 5.76%; on Polθ-pol on DNA/RNA (Time 10) it was 4.80% and 9.47% and 9.59%; on Polθ-pol on DNA/RNA (Time 20), 15.85% and 16.30% and 16.24%; at Polθ-pol on DNA/RNA (Time 40), 29.57% and 26.15% and 28.23%. For the same compound, the “% Extension of Control” value was 47.30% and 65.75% and 74.39% on Polθ-pol on DNA/RNA (Time 5); 39.83% and 67.79% and 72.59% at Polθ-pol on DNA/RNA (Time 10); 72.60% and 71.13% and 71.98% at Polθ-pol on DNA/RNA (Time 20); 79.52% and 73.56% and 82.47% at Polθ-pol on DNA/RNA (Time 40).
